Source: the METLIN SMRT retention time set (Domingo-Almenara et al. 2019)

Test: gradient 5% acetonitrile 3 min, to 50% in 2 min, to 85% in 15 min, held 3 min, 100 µL/min
Settings: column: Zorbax Extend-C18 2.1 x 50 mm; eluents: water / acetonitrile, 0.1% formic acid
How it was run: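 Pure standards were analyzed in mixtures of ~100 molecules using HPLC coupled to a quadrupole time-of-flight mass spectrometer, in both positive and negative ionization mode. Separation used a Zorbax Extend-C18 column (2.1 × 50 mm, 1.8 μm) at 100 μL/min, with water and acetonitrile each containing 0.1% formic acid. Dead and dwell volumes were 40 μL and 900 μL, and data were collected over 3 months. Retention time was read from computationally picked adduct peaks, each inspected manually.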

RP-LC retention time [s] | Structure (SMILES)
624 | CC1CCN(CCCNC(=O)C2c3ccccc3C(=O)N(C)C2c2cccs2)CC1 (stereo unspecified)
580 | CNC(=O)[C@@H]1CN(C(=O)c2ccc3c(c2)OCO3)C[C@H]1c1n[nH]c(C)n1
643 | Cc1ccc2c(C(=O)NCCc3cccs3)cc(NC(=O)C(C)C)cc2n1
579 | NC(=O)C1CCN(C2CC(=O)N(Cc3ccccc3)C2=O)CC1 (stereo unspecified)
950 | Cc1ccc(C)n1-c1nnc(N2CCCC(C(=O)NCCc3c[nH]c4ccccc34)C2)s1 (stereo unspecified)
689 | COCCN1C(=O)c2cccn2CC1CNS(=O)(=O)c1c(C)noc1C (stereo unspecified)
731 | COC(=O)c1ccc(C(=O)NCCCC(=O)Nc2cccc3cccnc23)cc1
873 | CCCc1noc(-c2ccnc(-n3cnc(C(=O)N4CCSCC4)c3)c2)n1
690 | O=C(Nc1ccc(F)cc1F)N1CC(Cc2nc(-c3cnccn3)no2)C1
919 | CN(Cc1ccco1)C(=O)Cn1cccc1-c1nnc(-c2ccccc2)o1
999 | CCn1cc(C2=CCN(C(=O)Nc3cc(Cl)ccc3C)CC2)c2cccnc21
600 | Cn1c(=O)n(C)c2cc(CNc3ccc(N4CCOCC4)cc3)ccc21
912 | CC(C)Cn1cc(CCNC(=O)Nc2ccc(F)c(Cl)c2)c2cccnc21
937 | CCn1ncn2cc(S(=O)(=O)Nc3ccc(C)cc3C)cc2c1=O
782 | O=C(Cn1cc(S(=O)(=O)N2CCCC2)ccc1=O)N1CCCc2ccccc21
555 | O=C(c1ccco1)N1CCC(O)(c2ccccc2)[C@H](N2CCCC2)C1 (stereo partly specified)
874 | O=C(c1ccc(Cl)cc1)N1CCCC(c2nnc(-c3ccccc3)o2)C1 (stereo unspecified)
740 | COCCN1CCn2cc(S(=O)(=O)Nc3ccc(C)cc3F)cc2C1=O
701 | COCCNC(=O)c1cc2c(n(-c3ccc(F)cc3)c1=O)CCCC2=O
1090 | O=C(c1ccc(F)cc1)N1CCCC1c1nc(-c2cccc(C(F)(F)F)c2)no1 (stereo unspecified)
1060 | CCOC(=O)c1noc2ncnc(NCCc3ccc(OCC)cc3)c12
573 | CN(C)CCNC(=O)C1CCCN(c2ncnc3c2nc2n3CCCCC2)C1 (stereo unspecified)
826 | CCOc1ccc(S(=O)(=O)NCCC(O)C(C)(C)C)cc1F (stereo unspecified)

RP-LC retention time [s] | Structure (SMILES)
916 | CCCCOc1c(C(=O)c2c(F)cc(C)cc2F)cnc2[nH]ncc12
1400 | CC(C)(C)c1ccc(-c2cc(C(=O)O)c3ccc(Br)cc3n2)cc1
598 | COc1cc(CN2CCC3(CCC(CN4CCOCC4)O3)CC2)ccc1OCC(C)C (stereo unspecified)
1080 | O=C(c1nnc(-c2ccc(S(=O)(=O)N3CCOCC3)cc2)o1)N1CCC(Cc2ccccc2)CC1
687 | CC(=O)NC(C)c1nc(-c2ccccc2Cl)no1 (stereo unspecified)
804 | COc1ccc(C)cc1NC(=O)Cn1nc2cc(-c3ccccn3)nc(C)n2c1=O
903 | CCn1c(=O)oc2cc(-c3noc(-c4ccnn4C)n3)ccc21
884 | COc1ccc(-c2noc(C3CCCN3C(=O)Nc3ccc4c(c3)OCO4)n2)cc1 (stereo unspecified)
698 | CC(C)CNC(=O)C1CC(=O)N(c2ccc3c(c2)CCN3C(=O)C2CC2)C1 (stereo unspecified)
1320 | COc1cc2c(cc1CNC(=O)C(=O)c1c[nH]c3ccccc13)OCCCO2
574 | COc1ccc(CCNC(=O)Cn2cnc(C)cc2=O)cc1OC
779 | CC1=C(c2ccc(Cl)cc2)S(=O)(=O)N=C1N1CCC(NC(=O)C2CCCO2)CC1 (stereo unspecified)
603 | Cc1ccc(S(=O)(=O)N2CCCN(C)c3ccccc32)cc1C
890 | O=C(Nc1ccccc1C(F)(F)F)c1csc(-c2ccc(N3CCCC3)nc2)n1
923 | CC(C)c1nc(-c2ccc(OC3CCN(C(=O)Cc4c[nH]c5ccccc45)C3)cc2)no1 (stereo unspecified)
738 | CCS(=O)(=O)Nc1cc(-c2nnc(C)o2)sc1C
592 | Cc1ccc(F)cc1S(=O)(=O)N1CCN(c2ccc(N3CCOCC3)nn2)CC1
618 | CN(C)C(=O)c1n[nH]c2c1CN(C(=O)c1ccccc1F)CC2
1010 | Cc1cccc(N2CCN(c3cc(-c4ccccc4)nc4c(-c5ccccc5)cnn34)CC2)n1
777 | Cn1nc(-c2nc(Cc3ccccc3)no2)c2c1CCN(C(=O)C1CCCO1)C2 (stereo unspecified)
756 | CC1CCc2nc3ncn(CC(=O)NCCc4ccc(Cl)cc4)c(=O)c3cc2C1 (stereo unspecified)
770 | COc1ccc(N2C=C(C(=O)N3CCOCC3)S(=O)(=O)c3ccc(Cl)cc32)cc1
680 | CCn1cc(C)c(C(=O)O)c1CC(=O)Nc1ccc(C)cn1

RP-LC retention time [s] | Structure (SMILES)
918 | Cc1ccc(N2CCC(NC(=O)c3ccc(F)c(F)c3)C2=O)cc1C (stereo unspecified)
689 | CCN1CCN(c2nc(F)c(F)c(S(=O)(=O)CCNc3ccccc3)c2F)CC1
909 | Cc1nn(-c2ccccc2)c(-n2cccc2)c1CNC(=O)NCc1ccc(F)cc1
1030 | Cc1cc(C)c(-c2csc(Nc3ccccn3)n2)cc1C
983 | CC(C)OCCCNC(=O)C(=O)Nc1ccc(C(C)C)cc1
659 | CCN1CCC(N(Cc2ccc3c(c2)OCO3)C(=O)Nc2ccc(OC)cc2OC)CC1
1160 | O=C(Nc1ccc(Cl)cc1)C1CCN(c2nccnc2Sc2ccccc2)CC1
965 | CCOC(=O)c1noc2ncnc(NCc3ccccc3Cl)c12
632 | Cc1nc(C)c(C(=O)N2CCC(c3noc(-c4cnccn4)n3)C2)s1 (stereo unspecified)
660 | Cc1cc(=O)n(CC(=O)NCc2ccccc2Br)c(N2CCOCC2)n1
665 | CCCN1CCN(C(=O)C2CCCN(S(=O)(=O)c3cc(-c4noc(CC)n4)cs3)C2)CC1 (stereo unspecified)
1060 | Cc1cccc(Sc2nccnc2N2CCCC(C(=O)NCc3ccc(C)o3)C2)c1 (stereo unspecified)
1010 | COc1ccc(OCC(=O)N2CCc3c(c(-c4nnc(-c5ccccc5Cl)o4)nn3C)C2)cc1
723 | CCc1ccccc1NC(=O)C1CC(=O)N(c2ccc3oc(C)nc3c2)C1 (stereo unspecified)
936 | CCOc1ccccc1NC(=O)NC(C)C(=O)N1CCc2ccccc21 (stereo unspecified)
612 | COc1ccc(S(=O)(=O)N2CCC3(CC2)CC(C)(O)CCO3)cc1OC (stereo unspecified)
766 | CN(C(=O)C1CCCN(c2ncnc3c2nc2n3CCCCC2)C1)c1ccccc1 (stereo unspecified)
889 | CC(C)Cn1cc(CCNC(=O)Nc2ccc(Cl)cc2)c2cccnc21
978 | CCn1c(=O)sc2cc(S(=O)(=O)N3CCC(C(=O)NCc4ccc(OC)cc4)CC3)ccc21
813 | CC(C)CN1N=C(C(=O)N2CCOCC2)S(=O)(=O)c2ccc(Cl)cc21
705 | COC(=O)c1ccc(Cl)cc1NC(=O)N(C)Cc1nc2cc(C(=O)N(C)C)ccc2n1C
894 | Cc1nc(CC(=O)Nc2nc(-c3ccccc3)c(C)s2)cs1
851 | Cc1ccc(C2=NC3(CCN(C(=O)Nc4cccc(C)c4)CC3)NC2=O)cc1

RP-LC retention time [s] | Structure (SMILES)
693 | Cc1nnc2c(=O)n(CC(=O)NCc3ccccc3Cl)c3cccnc3n12
612 | CN1CCC(NC(=O)C2CCc3sc(C(=O)N4CCCCCC4)cc3C2)CC1 (stereo unspecified)
630 | COc1ccc(-c2nc(Nc3c(C)n[nH]c3C)sc2C)cc1
843 | COc1cc(-c2cccc(Cl)c2)nc2ccc(NC(=O)Cc3cccs3)cc12
621 | Cn1c(=O)c2c(nc(Cc3ccc(N)cc3)n2C)n(C)c1=O
703 | Cc1nc(S(=O)(=O)N2CCc3c(c(-c4nnc(-c5ccc(F)cc5)o4)nn3C)C2)cn1C
691 | O=C(NC1CCCC1)N1CCC(c2nc(C3CCOCC3)no2)CC1
899 | CCn1c(=O)c2c(nc3n2CCCN3C2CCCCC2)n(C)c1=O
658 | O=C(Nc1ccc(N2CCOCC2)cc1)c1cccs1
1070 | O=C(NC1CCCCC1)C1CCCN(c2ncc(-c3ccccc3)cn2)C1 (stereo unspecified)
711 | O=C(c1ccc(C(F)(F)F)s1)N1CCN(c2nnc3ccccn23)CC1
725 | Cn1cc(CC(=O)NCc2ccc(F)c(Cl)c2)c2cccnc21
585 | COCCNC(=O)c1nc(-c2ccnc(N3CCCC3)c2)no1
782 | CCOc1ccc(CC(=O)N2C[C@@H]3C[C@H]2C[C@@H]3NC(=O)c2cccs2)cc1
946 | Cc1noc(-c2ccnc(-n3ncc(C(=O)N4CCC(C)CC4)c3C)c2)n1
862 | O=C(Cn1cccc1-c1nnc(C2CC2)o1)NCCc1ccc(Cl)cc1
800 | Cc1nc(Nc2ccccc2)sc1C(=O)NCC1CC1
614 | CN1C(=O)c2cccn2CC1C(=O)N1CCCCC1 (stereo unspecified)
931 | CCOc1ccc(N2CC(c3nc(-c4ccccc4C)no3)CC2=O)cc1 (stereo unspecified)
885 | CCC(C)n1nnc2cc(S(=O)(=O)N(C)CC(=O)NCCc3c[nH]c4ccccc34)ccc21 (stereo unspecified)
795 | O=C(CN1CCC(c2nc(-c3ccccc3)no2)CC1)Nc1ccccc1Br

Structure (SMILES) | RP-LC retention time [s]
Cc1ccc(Nc2cc(N3CCC(C(=O)N4CCC5(CC4)OCCO5)CC3)ncn2)cc1 | 645
